From PMC5513091, “A novel Alzheimer’s disease drug candidate targeting inflammation and fatty acid metabolism” (Alzheimer's Research & Therapy, 2017) come the findings set out here.

Each structure is given as a SMILES string.

One data set relates to protein kinases. Briefly: Protein Kinase Screen. It counts as binding. From the text:
Before undertaking animal experiments, it is important to determine if a new drug candidate has a chance for further clinical development by determining its pharmacological properties of bioavailability and brain penetrance as well as predicted safety.

A further data set has as its system Caco 2. The data set is described as follows: Caco 2 Transport. Format: in vitro ADME. (Caco-2 cells form a polarised layer with tight junctions and transporters.)
A further data set deals with Aβ1–42 (Homo sapiens, UniProt P05067). The data set is described as follows: Thioflavin S Aβ1–42 aggregation assay. Format: biochemical. The conditions noted are these: data not shown.
Another data set can be described thus: Pharmacokinetics in rats. Format: in vivo, Sprague-Dawley rats. The procedure: Sprague-Dawley rats had free access to food and water. CAD-31 was given by gavage to rats at 20 mg/kg in corn oil and intravenously in 15% HS 15/PBS. Whole-blood samples were collected from the jugular vein at every time point and brain collected after 20-ml saline perfusion. CAD-31 was extracted with acetonitrile and compared with standards on a TSQ Quantiva™ Triple Quadrupole Mass Spectrometer (Thermo Scientific, Waltham, MA, USA). For the mouse feeding studies, mice had free access to food containing 200 ppm CAD-31. Blood was collected by heart puncture, and the brain concentration was determined as with rats.

Another data set concerns ACC-1. The data set is described as follows: Immunoblotting of hippocampal tissue. It counts as in vivo, mice. The conditions noted are these: hippocampus. The procedure:
(§1) Hippocampal tissue samples were homogenized in 10 volumes of radioimmunoprecipitation assay (RIPA) lysis buffer (50 mM Tris, pH 7.5, 150 mM NaCl, 0.1% SDS, 0.5% deoxycholate, and 1% Nonidet P-40) containing a cocktail of protease and phosphatase inhibitors [[…] each of pepstatin A, aprotinin, phosphoramidon, and leupeptin; 0.5 mM 4-(2-aminoethyl)benzenesulfonyl fluoride hydrochloride; 1 mM ethylene glycol-bis(β-aminoethyl ether)-N,N,N′,N′-tetraacetic acid; 5 mM fenvalerate; and 5 mM cantharidin]. Samples were sonicated (2 × 10 seconds) and centrifuged first at 10,000 × g for 10 minutes and then at 100,000 × g for 60 minutes at 4 °C. The 100,000 × g pellet was taken up either in 6 M guanidine for Aβ analysis or in SDS sample buffer for Western blot analysis. Protein concentrations in the cell extracts were determined using a bicinchoninic acid protein assay (Pierce Biotechnology, Rockford, IL, USA). Equal amounts of protein were solubilized in 2.5× SDS sample buffer, separated on 12% SDS-polyacrylamide gels, transferred to Immobilon-P (EMD Millipore, Billerica, MA, USA), and immunoblotted with the antibodies indicated in the Materials subsection above. For Western blot experiments, protein levels were normalized to actin levels. An unpaired t test was performed to compare two groups at a single time point. When comparing multiple groups, one-way analysis of variance (ANOVA) followed by Tukey’s post hoc test was used. All statistical analysis was conducted using GraphPad InStat software.
(In general: A western blot detects proteins with antibodies after separation by electrophoresis.)

In data set [1] the test system is autophagy markers LC3 and P62. Briefly: Immunoblotting of hippocampal tissue. It counts as in vivo, mice. The following applies: data not shown. How it is done: as §1
A further data set concerns ubiquitinated proteins. The data set is described as follows: Immunoblotting of hippocampal tissue. Format: in vivo, mice. The conditions noted are these: hippocampus. How it is done:
as §1

In another data set the test system is DCX. Briefly: Immunoblotting of hippocampal tissue. Format: in vivo, mice. The conditions noted are these: hippocampus. How it is done: as §1
The next data set deals with CYP 1A2 (Homo sapiens, UniProt P05177). The data set is described as follows: CYP inhibition. Format: in vitro ADME.
Chain of CYP 1A2 (P05177 whole entry): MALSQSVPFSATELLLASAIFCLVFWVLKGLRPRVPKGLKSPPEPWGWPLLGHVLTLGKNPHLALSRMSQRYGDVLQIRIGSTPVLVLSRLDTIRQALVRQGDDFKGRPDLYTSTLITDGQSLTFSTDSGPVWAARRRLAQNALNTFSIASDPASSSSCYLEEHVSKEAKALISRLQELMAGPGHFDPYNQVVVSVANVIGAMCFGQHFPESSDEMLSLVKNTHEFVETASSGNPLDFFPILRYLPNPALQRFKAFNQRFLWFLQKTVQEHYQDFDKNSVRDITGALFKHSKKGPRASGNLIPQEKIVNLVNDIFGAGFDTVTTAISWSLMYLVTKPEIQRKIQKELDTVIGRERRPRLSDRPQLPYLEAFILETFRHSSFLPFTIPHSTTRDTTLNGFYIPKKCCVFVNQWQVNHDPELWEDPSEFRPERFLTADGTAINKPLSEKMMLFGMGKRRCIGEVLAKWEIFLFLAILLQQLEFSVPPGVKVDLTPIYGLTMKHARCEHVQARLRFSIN

Chain of Aβ1–42 (P05067 672-713 limits assumed): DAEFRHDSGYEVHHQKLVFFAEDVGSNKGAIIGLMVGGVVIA

As for `Cc1ccc(N(/N=C/c2cccc(OC(F)(F)F)c2)C(=O)C(F)(F)F)c(C)c1` [CAD-31], in “Ames test”, the EC50 (commonly the concentration that produces a half-maximal response) at 10 µM is greater than 10 µM. The “activity in the Ames test” value in “Ames test” (10 μM) was “showed no sign of acute toxicity or activity”. For the same compound, the “interaction with known protein kinases” value with protein kinases (10 μM) is “did not interact”. The compound further displayed an EC50 on protein kinases (all kinases) greater than 10 µM. Moreover, the “Caco 2 Transport” value with Caco 2 was “High”. Moreover, the “binding to and direct inhibition of Aβ1–42 aggregation” value on Aβ1–42 is “Neither J147 nor CAD-31 binds to and directly inhibits Aβ1–42 aggregation”. For the same compound, in “Pharmacokinetics in rats” (20 mg/kg by gavage in corn oil), the “PO Max Brain, concentration” value stood at 3.0 µM; the “PO Max Brain, time” value turned out to be 8 h; the “PO Max Plasma, concentration” value was found to be 1.7 µM; the “PO Max Plasma, time” value was 8 h. The Kp at 8 h in “Pharmacokinetics in rats” (Sprague-Dawley, rat, brain and plasma, po, 20 mg/kg by gavage, at 8 h, read-out: brain-to-plasma ratio) amounted to 2.8. The half-life – broadly, the time in which the quantity being followed falls by half – in the data set “Pharmacokinetics in rats” (Sprague-Dawley, rat, in vivo, 20 mg/kg) is 4.3 h. In addition, the bioavailability (usually dose-corrected exposure relative to a reference, in per cent) in “Pharmacokinetics in rats” (Sprague-Dawley, rat, plasma, oral, 20 mg/kg) was found to be 31%. Also, in the data set on ACC-1 (AD mice), the “phosphorylation of ACC-1” value is given as “greatly increases the depressed level of phosphorylation in AD mice” and the “total amount of ACC-1 protein” value is reported as “not significantly reduced”. In addition, the “phosphorylation of ACC-1” value in the data set with ACC-1 (WT mice) is reported as “decreases the phosphorylation of ACC-1 in WT mice”. In addition, the “expression of the autophagy markers LC3 and P62” value in data set [1] was “did not, however, alter the expression”. Besides, the RIPA-insoluble ubiquitinated proteins result with ubiquitinated proteins (13-month-old WT and AD mice) was “reduced”. Moreover, the “ubiquitinated proteins in the soluble fraction” value in the data set with ubiquitinated proteins (data not shown) is reported as “unchanged”. Besides, in the data set with DCX, the “expression of the NPC marker DCX” value is on record as “increased the expression of the NPC marker DCX in the hippocampus”. The compound further displayed an EC50 at 10 µM in “Micronucleus assay” greater than 10 µM. Also, the “activity in the micronucleus assay” value in the data set “Micronucleus assay” (10 μM) was “showed no sign of acute toxicity or activity”. Further, the EC50 at 10 µM on CYP 1A2 was greater than 10 µM.
